The source of these data is ChEMBL document CHEMBL1132498, “Increased antiviral activity of cyclic urea HIV protease inhibitors by modifying the P1/P1' substituents” (Bioorg Med Chem Lett, 1999).

The target of experiment [1] is Human immunodeficiency virus type 1 protease (Human immunodeficiency virus 1, UniProt Q72874). Description: Binding affinity for HIV protease.
In experiment [2] the test system is Human immunodeficiency virus 1. Description: Inhibitory activity was determined by measuring accumulation of viral RNA transcript after infection of cells with HIV-1. It counts as functional.
The nature of experiment [3]: Translatory activity was evaluated as ratio of Ki and IC90 *10e-5. It counts as functional.

`CCc1ccc(C[C@@H]2[C@H](O)[C@@H](O)[C@@H](Cc3ccc(CC)cc3)N(Cc3ccc4[nH]nc(N)c4c3)C(=O)N2Cc2ccc3[nH]nc(N)c3c2)cc1`: in experiment [1], affinity was put at a Ki of 0.068 nM. The IC90 in experiment [2] is 300 nM. Moreover, the Translation in experiment [3] came out at 23.
In the same order, the values of `Cc1ccc(C)c(C[C@@H]2[C@H](O)[C@@H](O)[C@@H](Cc3cc(C)ccc3C)N(Cc3ccc4[nH]nc(N)c4c3)C(=O)N2Cc2ccc3[nH]nc(N)c3c2)c1` are 0.034 nM, 300 nM and 11.
For `CCCCc1ccc(C[C@@H]2[C@H](O)[C@@H](O)[C@@H](Cc3ccc(CCCC)cc3)N(Cc3ccc4[nH]nc(N)c4c3)C(=O)N2Cc2ccc3[nH]nc(N)c3c2)cc1`, in that order: 0.17 nM, 180 nM and 94.
In the case of `Cc1cc(C)cc(C[C@@H]2[C@H](O)[C@@H](O)[C@@H](Cc3cc(C)cc(C)c3)N(Cc3ccc4[nH]nc(N)c4c3)C(=O)N2Cc2ccc3[nH]nc(N)c3c2)c1`, in experiment [1], the Ki came to 0.067 nM. The IC90 in experiment [2] is 540 nM. Moreover, the Translation in experiment [3] stood at 12.
In turn, `CC(C)(C)c1cccc(C[C@@H]2[C@H](O)[C@@H](O)[C@@H](Cc3cccc(C(C)(C)C)c3)N(Cc3ccc4[nH]nc(N)c4c3)C(=O)N2Cc2ccc3[nH]nc(N)c3c2)c1` gave a Ki in experiment [1] of 0.21 nM. In experiment [2], this molecule showed an IC90 of 390 nM. Besides, the Translation in experiment [3] turned out to be 54.
For `CC(C)(C)c1ccc(C[C@@H]2[C@H](O)[C@@H](O)[C@@H](Cc3ccc(C(C)(C)C)cc3)N(Cc3ccc4[nH]nc(N)c4c3)C(=O)N2Cc2ccc3[nH]nc(N)c3c2)cc1`, in that order: 0.19 nM, 100 nM and 190.
For `Nc1n[nH]c2ccc(CN3C(=O)N(Cc4ccc5[nH]nc(N)c5c4)[C@H](Cc4ccccc4)[C@H](O)[C@@H](O)[C@H]3Cc3ccccc3)cc12`, the Ki in experiment [1] was under 0.01 nM.
In experiment [1], `CCCc1ccc(C[C@@H]2[C@H](O)[C@@H](O)[C@@H](Cc3ccc(CCC)cc3)N(Cc3ccc4[nH]nc(N)c4c3)C(=O)N2Cc2ccc3[nH]nc(N)c3c2)cc1` had a Ki of 0.068 nM. Besides, in experiment [2], it took 290 nM to reach the 90% level (IC90). For the same molecule, in experiment [3], the Translation turned out to be 23.
In the same order, the values of `Cc1cccc(C[C@@H]2[C@H](O)[C@@H](O)[C@@H](Cc3cccc(C)c3)N(Cc3ccc4[nH]nc(N)c4c3)C(=O)N2Cc2ccc3[nH]nc(N)c3c2)c1` are 0.011 nM, 740 nM and 1.5.
In experiment [2], `Nc1[nH]nc2ccc(CN3C(=O)N(Cc4ccc5n[nH]c(N)c5c4)[C@H](Cc4ccccc4)[C@H](O)[C@@H](O)[C@H]3Cc3ccccc3)cc12` gave an IC90 of 2760 nM. Further, the Translation in experiment [3] was under 0.36.
On to `CC(C)c1ccc(C[C@@H]2[C@H](O)[C@@H](O)[C@@H](Cc3ccc(C(C)C)cc3)N(Cc3ccc4[nH]nc(N)c4c3)C(=O)N2Cc2ccc3[nH]nc(N)c3c2)cc1`, for which the affinity in experiment [1], expressed as Ki, was 0.19 nM. For the same molecule, the IC90 in experiment [2] came out at 410 nM. In addition, in experiment [3], the Translation was 46.
In the same order, the values of `Cc1ccc(C[C@@H]2[C@H](O)[C@@H](O)[C@@H](Cc3ccc(C)cc3)N(Cc3ccc4[nH]nc(N)c4c3)C(=O)N2Cc2ccc3[nH]nc(N)c3c2)cc1` are 0.061 nM, 780 nM and 8.
